In patent US5089623A, “Certain imidate insecticides” (Imperial Chemical Industries Plc, priority 1990, dated 1992):

Key:
Assay type in all cases: in vivo
[1] = tested on: Housefly [Musca domestica]; test: Housefly insecticidal test (HF); details: per 25 female houseflies, 48 hours
[2] = tested on: Tobacco Budworm [Heliothis virescens (Fabricius)] eggs; test: Tobacco budworm egg test (TBW-E); details: percent in solution
[3] = tested on: Cabbage Looper [Trichoplusia ni (Hubner)]; test: Cabbage looper test (CL); details: second-instar larvae, 3-5 days, percent in solution
[4] = tested on: Aster Leafhopper [Macrosteles fascifrens (Stal)]; test: Aster leafhopper test (LH); details: adults/nymphs, 48 hours, percent in solution
[5] = tested on: Maize weevil [Sitophilus Zeamais (Motschulsky)]; test: Maize weevil test (MW); details: adult weevils, treated corn seeds, 48 hours, percent in solution
Procedure, shortened: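 Adult weevils (10) were placed with four corn seeds that had been dipped 2-3 s in compound dissolved in 50:50 acetone:water, then dried, and held at about 25° C. Mortality was scored at 48 h. LC50 was taken from dosage-mortality curves and expressed as percent compound in solution, from a 0.01% top concentration.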

Row | Structure (SMILES) | LC50 HF [1] [µg] | LC50 TBW E [2] [%] | LC50 CL [3] [%] | LC50 LH [4] [%] | LC50 MW [5] [%]
1 | C=C(C)C(=Nc1ccc(Cl)cc1)OCc1cccc(Oc2ccccc2)c1 [Compound 6] | 17 | 0.015 | 0.02 | > 0.05 | > 0.01
2 | CCC(=Nc1ccc(Cl)cc1)OCc1cccc(Oc2ccccc2)c1 [Compound 11] | 6 | > 0.1 | 0.025 | > 0.05 | > 0.01
3 | CC(C)C(=Nc1cc(Cl)ccc1Cl)OCc1cccc(Oc2ccccc2)c1 [Compound 13] | > 100 | > 0.1 | 0.014 | > 0.05 | > 0.01
4 | CC(C)C(=Nc1ccccc1Cl)OCc1cccc(Oc2ccccc2)c1 [Compound 17] | 75 | > 0.1 | 0.03 | > 0.05 | > 0.01
5 | N#CC(=Nc1ccc(Cl)cc1)OCc1cccc(Oc2ccccc2)c1 [Compound 21] | 7 | > 0.1 | 0.02 | > 0.05 | > 0.01
6 | Cc1ccc(N=C(OCc2cccc(Oc3ccccc3)c2)C(C)C)cc1Cl [Compound 90] | > 100 | 0.016 | > 0.1 | 0.001 | 
7 | COc1c(Cl)cc(N=C(OCc2cccc(Oc3ccccc3)c2)C(C)C)cc1Cl [Compound 91] | 37 | > 0.01 | 0.002 | 0.003 | 
8 | CC(C)C(=Nc1c(Cl)cc([N+](=O)[O-])cc1Cl)OCc1cccc(Oc2ccccc2)c1 [Compound 92] | > 100 | > 0.1 | 0.015 | > 0.05 | 
9 | Clc1ccc(N=C(OCc2cccc(Oc3ccccc3)c2)C(Cl)Cl)c2ccccc12 [Compound 98] | > 100 | 0.1 | 0.016 | > 0.05 | 
10 | Cc1c(Cl)cc(N=C(OCc2cccc(Oc3ccccc3)c2)C(C)C)cc1Cl [Compound 101] | 81 | > 0.1 | 0.0045 | 0.0008 | 
11 | CCOC(=O)c1cc(N=C(OCc2cccc(Oc3ccccc3)c2)C(C)C)ccc1Cl [Compound 102] | > 100 | > 0.1 | 0.075 | > 0.05 | 
12 | CC(C)(Cl)C(=Nc1ccc(C#N)c(Cl)c1)OCc1cccc(Oc2ccccc2)c1 [Compound 108] | 44 | > 0.1 | 0.002 | > 0.01 | 
13 | CC(C)C(=Nc1c(F)cc(F)cc1Br)OCc1cccc(Oc2ccccc2)c1 [Compound 129] | > 100 | > 0.1 | 0.005 | 0.01 | 
14 | CC(C)C(=Nc1ccc(Br)cc1)OCc1cccc(Oc2ccccc2)c1 [Compound 131] | 17 | > 0.1 | 0.0045 | 0.005 | 
15 | CC(C)(C)C(=Nc1ccc(Br)cc1)OCc1cccc(Oc2ccccc2)c1 [Compound 135] | > 100 | > 0.1 | 0.004 | > 0.05 | 
16 | CC(C)C(=Nc1ccc(I)cc1)OCc1cccc(Oc2ccccc2)c1 [Compound 137] | 18 | 0.04 | 0.003 | 0.008 | 
